Measurements as given in patent US20080004290A1, “Anti-Cancer Agents” (THE UNIVERSITY OF QUEENSLAND, priority 2003, published 2008).
Like-named read-outs stand apart in the source and are kept apart here.

How the values were obtained:
Type in all cases: cell-based, human
MM96L melanoma cells = assay: Cell survival assay (clonogenic survival, SRB); conditions: for SI (Selectivity Index = IC50 (NFF)/IC50 (MM96L)): NFF vs MM96L
Method in brief: (§1)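 Cells (5×10^3/well, RPMI 1640 with 10% FCS) treated 24 h with compound at 0.01-10 μg/mL, then washed and grown 72 h drug-free at 37 °C, 5% CO2. Survival read by SRB staining after methylated-spirit fixation, absorbance 564 nm.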

[1] = tested on: CI-80-13S ovarian cancer cells; assay: Cell survival assay (SRB); conditions: for IC50: read-out: Cytoselectivities (nM) CI80-13S
Protocol: (§2) Cell Lines and Culture Medium. All cell lines used in this study have been described previously (Parsons et al., 1986; Todaro et al., 1980; Glenn et al., 2004). All cell lines were cultured in 10% heat-inactivated foetal calf serum (CSL, Australia) in RPMI 1640 medium supplemented with 100 U/mL penicillin, 100 μg/mL streptomycin, and 3 mM HEPES at 5% CO2, 99% humidity at 37° C. Primary human fibroblasts were obtained from neonatal foreskins and cultured in the above medium. Routine mycoplasma tests were performed using Hoechst stain^i and were always negative.
(§3) Cell Survival Assay. Cells were plated into 96-well microtitre plates at 5×10^3 cells/well, and allowed to adhere overnight. Test compounds were added to culture medium at the indicated concentrations, and plates incubated in the above conditions for 24 hours. Following this incubation period, compounds and media were removed, and replaced with fresh culture medium. Cells were then grown for a further 72 hours before assay using sulforhodamine B (SRB; Sigma, St. Louis, Mo.) as previously described. Briefly, the culture medium was removed from the 96-well microtitre plates and the plates washed twice with phosphate buffered saline (PBS), before the cells were fixed with methylated spirits for 15 minutes. The plates were then rinsed with tap water and the fixed cells stained with 50 μL/well of SRB solution (0.4% sulforhodamine B (w/v) in 1% (v/v) acetic acid) over a period of 1 hour. The SRB solution was then removed from the wells and the plates rapidly washed two times with 1% (v/v) acetic acid. Protein bound dye was then solubilised with the addition of 100 μL of 10 mM unbuffered Tris, and incubated for 15 min at 25° C. Plates were then read at 564 nm on a VERSA max tunable microplate reader (Molecular Devices, Sunnyvale, Calif.).
(§4) For comparison their results are also shown for MM96L and NFF cell lines.

[2] = tested on: DU145 prostate cancer cells; assay: Cell survival assay (SRB); conditions: for IC50: DU145 (prostate), read-out: Cytoselectivities (nM) DU145
Protocol: as §2, §3, §4

JAM ovarian cancer cells = assay: Cell survival assay (SRB); conditions: for IC50: read-out: Cytoselectivities (nM) JAM
Protocol: as §2, §3, §4

[3] = tested on: MCF-7 breast cancer cells; assay: Cell survival assay (SRB); conditions: for IC50: MCF-7 (breast), read-out: Cytoselectivities (nM) MCF-7
Protocol: as §2, §3, §4

SkMel28 melanoma cells = assay: Cell survival assay (SRB); conditions: for IC50: SK-MEL-28 (melanoma), read-out: Cytoselectivities (nM) SK-MEL-28
Protocol: as §2, §3, §4

A549 cells = assay: Cell survival assay (SRB); conditions: for IC50: A549 (lung), read-out: Cytoselectivities (nM) A549
Protocol: as §2, §3

H520 cells = assay: Cell survival assay (SRB); conditions: for IC50: read-out: Cytoselectivities (nM) H520
Protocol: as §2, §3

HOP62 cells = assay: Cell survival assay (SRB); conditions: for IC50: HOP62 (lung), read-out: Cytoselectivities (nM) HOP62
Protocol: as §2, §3

HT29 cells = assay: Cell survival assay (SRB); conditions: for IC50: HT29 (colon), read-out: Cytoselectivities (nM) HT29
Protocol: as §2, §3

PC-3 cells = assay: Cell survival assay (SRB); conditions: for IC50: PC-3, read-out: Cytoselectivities (nM) PC-3
Protocol: as §2, §3

SK-MEL-5 cells = assay: Cell survival assay (SRB); conditions: for IC50: SK-MEL-5, read-out: Cytoselectivities (nM) SK-MEL-5
Protocol: as §2, §3

T-47D cells = assay: Cell survival assay (SRB); conditions: for IC50: read-out: Cytoselectivities (nM) T-47D
Protocol: as §2, §3

[4] = tested on: NFF, neonatal foreskin fibroblasts; assay: Cell survival assay (clonogenic survival, SRB), normal cells; conditions: SRB
Method in brief: as §1

Col208 cells = assay: Cell survival assay (SRB)
Protocol: as §2, §3

[5] = MM96L, Table 12, read-out: Cytoselectivities (nM) MM96L
[6] = Homo sapiens, Fibroblast, NFF normal fibroblasts, 24 h with compound, further 72 h growth, read-out: IC50 (uM) NFF
[7] = Homo sapiens, MM96L, MM96L melanoma, 24 h with compound, further 72 h growth, SRB, read-out: IC50 (uM) MM96L
[8] = Table 13, S enantiomer, IC50(NFF)/IC50(cancer cell line)

O=C(CCCCC[C@@H](NC(=O)c1cc2ccccc2[nH]1)C(=O)Nc1cccc2cccnc12)NO [132 R]
IC50 (MM96L melanoma cells; [5]): 18 nM | IC50 ([1]; CI80-13S): 27 nM | IC50 [2]: 33 nM | IC50 (JAM ovarian cancer cells; JAM): 211 nM | IC50 [3]: 42 nM | IC50 (SkMel28 melanoma cells): 43 nM | IC50 (A549 cells): 121 nM | IC50 (H520 cells; H520): 180 nM | IC50 (HOP62 cells): 63 nM | IC50 (HT29 cells): 238 nM | IC50 (PC-3 cells): 148 nM | IC50 (SK-MEL-5 cells): 23 nM | IC50 (T-47D cells; T-47D): 42 nM

O=C(CCCCC[C@@H](NC(=O)OCc1ccccc1)C(=O)Nc1cccc2cccnc12)NO [148 R]
IC50 (MM96L melanoma cells; [5]): 22 nM | IC50 ([1]; CI80-13S): 29 nM | IC50 [2]: 39 nM | IC50 (JAM ovarian cancer cells; JAM): 65 nM | IC50 [3]: 29 nM | IC50 (SkMel28 melanoma cells): 43 nM | IC50 (A549 cells): 104 nM | IC50 (H520 cells; H520): 46 nM | IC50 (HOP62 cells): 65 nM | IC50 (HT29 cells): 139 nM | IC50 (PC-3 cells): 269 nM | IC50 (SK-MEL-5 cells): 20 nM | IC50 (T-47D cells; T-47D): 51 nM

O=C(/C=C/c1ccccc1)N[C@@H](CCCCCC(=O)NO)C(=O)Nc1cccc2cccnc12 [Example 146]
IC50 [4, 6]: 1.24 µM | IC50 (MM96L melanoma cells; [7]): 21 nM | IC50 (MM96L melanoma cells; Homo sapiens, MM96L, Table 12, read-out: Cytoselectivities (nM) MM96L): 20 nM | IC50 (MM96L melanoma cells; Homo sapiens, MM96L, most preferred compounds, exemplary examples, read-out: potency of IC50 against the MM96 melanoma cells): ≤ 500 nM | SI (Selectivity Index = IC50 (NFF)/IC50 (MM96L)) (MM96L melanoma cells): 58.9 | Selectivity Index MM96L (MM96L melanoma cells; [8]): 63 | IC50 ([1]; Homo sapiens): 28 nM | Selectivity Index CI80-13S [1, 8]: 44 | IC50 ([2]; Homo sapiens, DU-145): 30 nM | Selectivity Index DU145 [2, 8]: 41 | IC50 (JAM ovarian cancer cells; Homo sapiens): 49 nM | Selectivity Index JAM (JAM ovarian cancer cells; [8]): 25 | IC50 ([3]; Homo sapiens, MCF7): 17 nM | Selectivity Index MCF-7 [3, 8]: 71 | IC50 (SkMel28 melanoma cells; Homo sapiens): 37 nM | Selectivity Index SK-MEL-28 (SkMel28 melanoma cells; [8]): 34 | IC50 (A549 cells; Homo sapiens): 73 nM | Selectivity Index A549 (A549 cells; [8]): 17 | IC50 (Col208 cells; Homo sapiens, Col208 (colon), read-out: Cytoselectivities (nM) Col208): 141 nM | Selectivity Index Col208 (Col208 cells; [8]): 9 | IC50 (H520 cells; Homo sapiens, NCI-H520): 27 nM | Selectivity Index H520 (H520 cells; [8]): 46 | IC50 (HOP62 cells; Homo sapiens, HOP-62): 65 nM | Selectivity Index HOP62 (HOP62 cells; [8]): 19 | IC50 (HT29 cells; Homo sapiens, HT-29): 99 nM | Selectivity Index HT29 (HT29 cells; [8]): 13 | IC50 (PC-3 cells; Homo sapiens): 109 nM | Selectivity Index PC-3 (PC-3 cells; [8]): 11 | IC50 (SK-MEL-5 cells; Homo sapiens): 29 nM | Selectivity Index SK-MEL-5 (SK-MEL-5 cells; [8]): 43 | IC50 (T-47D cells; Homo sapiens, T47D): 20 nM | Selectivity Index T-47D (T-47D cells; [8]): 63

O=C(CCCCC[C@@H](NC(=O)c1ccc(Br)cc1)C(=O)Nc1ccc(-c2ccccc2)cc1)NO [161 R]
IC50 (MM96L melanoma cells; [5]): 18600 nM | IC50 ([1]; CI80-13S): 18600 nM | IC50 [2]: 18600 nM | IC50 (JAM ovarian cancer cells; JAM): 18600 nM | IC50 [3]: 13000 nM | IC50 (SkMel28 melanoma cells): 18600 nM | IC50 (A549 cells): 18600 nM | IC50 (H520 cells; H520): 18600 nM | IC50 (HOP62 cells): 18600 nM | IC50 (HT29 cells): 18600 nM | IC50 (PC-3 cells): 18600 nM | IC50 (SK-MEL-5 cells): 18600 nM | IC50 (T-47D cells; T-47D): 18600 nM

O=C(/C=C/c1ccccc1)N[C@H](CCCCCC(=O)NO)C(=O)Nc1cccc2cccnc12 [146 R]
IC50 (MM96L melanoma cells; [5]): 45 nM | IC50 ([1]; CI80-13S): 91 nM | IC50 [2]: 63 nM | IC50 (JAM ovarian cancer cells; JAM): 163 nM | IC50 [3]: 51 nM | IC50 (SkMel28 melanoma cells): 87 nM | IC50 (A549 cells): 196 nM | IC50 (H520 cells; H520): 152 nM | IC50 (HOP62 cells): 133 nM | IC50 (HT29 cells): 272 nM | IC50 (PC-3 cells): 543 nM | IC50 (SK-MEL-5 cells): 66 nM | IC50 (T-47D cells; T-47D): 99 nM

CN(C)c1ccc(C(=O)N[C@H](CCCCCC(=O)NO)C(=O)Nc2cccc3cccnc23)cc1 [126 R]
IC50 (MM96L melanoma cells; [5]): 38 nM | IC50 ([1]; CI80-13S): 43 nM | IC50 [2]: 52 nM | IC50 (JAM ovarian cancer cells; JAM): 251 nM | IC50 [3]: 40 nM | IC50 (SkMel28 melanoma cells): 57 nM | IC50 (A549 cells): 191 nM | IC50 (H520 cells; H520): 188 nM | IC50 (HOP62 cells): 147 nM | IC50 (HT29 cells): 199 nM | IC50 (PC-3 cells): 387 nM | IC50 (SK-MEL-5 cells): 44 nM | IC50 (T-47D cells; T-47D): 63 nM

O=C(CCCCC[C@H](NC(=O)OCC1c2ccccc2-c2ccccc21)C(=O)NCc1ccccc1)NO [Example 142]
IC50 [4, 6]: 5.37 µM | IC50 (MM96L melanoma cells; [7]): 3200 nM | SI (Selectivity Index = IC50 (NFF)/IC50 (MM96L)) (MM96L melanoma cells): 1.7

O=C(/C=C/c1ccccc1)N[C@@H](CSCCCC(=O)NO)C(=O)NCc1ccccc1 [Example 48]
IC50 ([4]; Table 5, 24 hours with compound, further growth, read-out: IC50 NFF): 0.8 ± 0.2 µM | IC50 (MM96L melanoma cells; Table 5, 24 hours with compound, further growth, SRB, read-out: IC50 MM96L): 200 ± 100 nM | Selectivity (MM96L melanoma cells; Table 5, Selectivity Index = IC50 (NFF)/IC50 (MM96L)): 4.0
